Test results published in patent US12527778B2, “Enantiomers of a series of antiviral compounds” (Innovative Molecules GmbH, priority 2017, dated 2026).

Assay: aqueous solubility (PBS, pH 7.4), shake flask
Format: physicochemical
Protocol: The aqueous solubility (PBS, pH 7.4) was determined at Eurofins, Cerep, Panlabs according to C. A. Lipinski et al. Adv. Drug Del. Rev. 1997:46, 3.
Measurement of the aqueous solubility was performed according to Lipinski, C. A. et al. Adv. Drug Del. Rev. 1997:46, 3. The relevant information from the literature is described below.
In addition, chromatographic purity (%) was defined as the peak area of the principal peak relative to the total integrated peak area in the HPLC chromatogram of the calibration standard.

Compound: Cc1nc(N(C)C(=O)Cc2ccc(-c3cc(F)ccc3F)cc2)sc1S(C)(=N)=O (racemic) [Example 7, 2-(2′,5′-Difluoro-[1,1′-biphenyl]-4-yl)-N-methyl-N-(4-methyl-5-(S-methylsulfonimidoyl)thiazol-2-yl)acetamide]
- solubility in comparison to Example 87 (WO2001/047904): significantly increased solubility (at least one order of magnitude)
